Like-named read-outs stand apart in the source and are kept apart here.
How the values were obtained:
[1] = target: T1, PTP-β (Homo sapiens, UniProt P23467); assay: PTPase assay with pNPP as substrate; assay type: biochemical
T1 construct: purchased Upstate Biotechnology
Procedure: Protein tyrosine phosphatase (PTPase) assays were performed using the synthetic substrate p-nitrophenylphosphate (pNPP) and the phosphatases PTP-1B and PTP-β (Upstate Biotechnology). The standard assay conditions were 25 mM HEPES pH 7.2, 50 mM NaCl, 5 mM DTT, 2.5 mM EDTA, 100 μg/ml BSA, 1 mM pNPP (Sigma) and 4 unit PTP-1B and 10 unit PTP-β, respectively. The assay was started by adding the enzyme and was carried out for 15 min at 30 C in a preheated ELISA reader chamber. The linear increase of absorbance was monitored every 30 seconds at a wavelength of 410 nm.

[2] = target: T2, PTEN (Mus musculus, UniProt O08586); assay: PKB assay: dose dependence of PTEN inhibition in insulin-stimulated NIH3T3 cells (pSer473 Western blot); assay type: cell-based; conditions: for increase of PKB phosphorylation in comparison with the control: 20 nM compound, control 0.5 μg/ml insulin; for IC50: NIH3T3, 5 min compound then 0.5 μg/ml insulin 15 min, read-out: IC50 (in vivo PTEN inhibition, densitometry of pSer473 PKB)
T2 construct: endogenous in cells; host or cells: NIH3T3
Procedure: (§1) NIH3T3 cells (passage 5-20) were grown in 10% NCS D-MEM (GIBCO BRL) in 6-well plates at 37 C and 5% CO2. Starvation of the cells was carried out over 72 h in D-MEM containing 0.5% NCS. Prior use medium was changed to 0% D-MEM. UM-UC-3 cells which is a PTEN^− bladder tumour cell line (NO 195, No 196) were grown in 10% MEM (GIBCO BRL), starved with 0.5% MEM also for three days and finally incubated with serum free MEM.
(§2) UM-UC-3 cells were treated in exactly the same manner. Cell samples were analysed on Western Blots with PKB antibodies.
(§3) All cell lysate samples were loaded on 10% SDS-PAGE and transferred to PVDF membranes for PKB analysis and nitrocellulose for phospho tyrosine detection. For PKB Western Blots membranes were blocked for 1 h with 5% milk powder in TBST followed by an incubation with anti Mass PKB antibody (1:1000) or anti phospho-PKB (Ser473) antibody (1:1000) in TBST for 2 h. Finally, membranes were exposed to a horseradish peroxidase-conjugated secondary antiserum (BIORAD) (1:1000) in 5% milk powder solution for 1 h. The Western Blots were developed with ECL™ solution (Amersham). In order to detect phosphorylated tyrosine residues nitrocellulose membranes were blocked for 1 h with 2.5% milk powder, first incubated with a specific anti phosphotyrosine antibody (4G10) (1:3000) for 1 h, and finally with horseradish peroxidase-conjugated secondary anti mouse antiserum. All PKB and Phospho-Tyrosine experiments were accomplished in three independent experiments and all membranes were re-probed using a specific tubulin antibody (1:1000). Density analysis of bands took place using the public domain NIH Image V1.62 program (developed at the U.S. National Institutes of Health and available on the Internet at http://rsb.info.nih.gov/nih-image/).

[3] = system: PKB phosphorylation (pSer473) in NIH3T3 cells; assay: PKB assay: activation of insulin signalling pathway (insulin mimetic property), NIH3T3; assay type: cell-based; conditions: NIH3T3, 1 μM, 15 min, no insulin
Procedure: as §1
Cells were washed once with PBS and lysed using 80 μl SDS-PAGE buffer (250 mM Tris pH 6.8, 20% glycerol, 4% SDS, 0.01% bromphenol blue, 50 mM mercaptoethanol). Samples were boiled for 15 min and stored at −20 C until analysis on Western Blots as described in the last paragraph.
as §3

[4] = target: SopB (Salmonella typhimurium, UniProt O30916); assay: biochemical; assay type: biochemical
[5] = target: T3, MTM (Homo sapiens, UniProt Q13496); assay: MTM IC50 (inositol phosphatase inhibition); assay type: biochemical
T3 sequence (Q13496 1-603): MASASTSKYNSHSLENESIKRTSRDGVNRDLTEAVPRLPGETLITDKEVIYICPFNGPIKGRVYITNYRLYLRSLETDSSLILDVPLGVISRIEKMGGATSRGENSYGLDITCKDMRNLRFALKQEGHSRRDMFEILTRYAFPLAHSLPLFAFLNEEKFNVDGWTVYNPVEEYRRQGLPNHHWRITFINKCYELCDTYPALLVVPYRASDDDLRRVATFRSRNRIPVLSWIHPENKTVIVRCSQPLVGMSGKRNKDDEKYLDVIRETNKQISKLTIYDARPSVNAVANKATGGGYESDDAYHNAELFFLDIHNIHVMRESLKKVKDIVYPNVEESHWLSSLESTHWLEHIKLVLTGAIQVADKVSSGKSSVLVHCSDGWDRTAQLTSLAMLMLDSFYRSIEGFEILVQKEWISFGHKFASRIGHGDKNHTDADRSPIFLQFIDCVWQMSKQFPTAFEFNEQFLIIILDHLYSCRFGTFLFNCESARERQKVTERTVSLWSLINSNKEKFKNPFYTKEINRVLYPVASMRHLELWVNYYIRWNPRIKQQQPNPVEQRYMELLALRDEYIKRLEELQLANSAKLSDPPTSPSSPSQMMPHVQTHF

[6] = target: T2, PTEN; assay: PTEN preliminary data (western blots); assay type: cell-based
Procedure: as §2, §3

[7] = system: phosphorylation of tyrosine residues in NIH3T3 cells; assay: Phosphotyrosine assay with NIH3T3 cells; assay type: cell-based; conditions: 15 min
Procedure: NIH3T3 cells were grown and starved as described earlier. After 72 h starvation cells were incubated for 15 min with 10% NCS, 50, 10 and […] insulin (Sigma), 10, 1, 0.1 and 0.01 μM bpV(pic) and bpV(phen), respectively. Cell lysates were prepared as described above and all samples were analysed on Western Blots using an anti phospho-tyrosine antibody (Upstate).
as §3

[8] = target: T4, PTEN (Homo sapiens, UniProt P60484); assay: Malachite green phosphate release assay with PI(3,4,5)P3; assay type: biochemical; conditions: for IC50: head says published data, same values as the applicant's FIG. 1 study, read-out: PTEN Published data In vitro enzyme assay confirmed by in vivo data; for specificity of phosphatase inhibition: PTEN versus SopB, MTM, PTP; for PTEN inhibition, summary in words: comment below PTEN table
T4 construct: GST (N); made in house; host or cells: Escherichia coli DH5 alpha
Procedure: The coding region of the DNA sequence of human PTEN was cloned into a pGEX-4T2 expression vector (Pharmacia). Protein expression was induced overnight in the Escherichia coli DH5[…] strain using 100 μM IPTG at 18 C. GST-fusion proteins were purified according to the manufacturer's manual using glutathione sepharose 4B (Pharmacia). Protein integrity and specificity were confirmed on a Western Blot using GST antibody (Novagen).
Enzyme activity of recombinant PTEN was measured with a malachite green dye based phosphate release assay (No 230, No 83). The standard assay conditions were 200 mM Tris pH 7.4, 50 ng/μl BSA, and 15 ng/μl PTEN. The synthetic lipid PI(3,4,5)P3dC16 (Cell Signals) was used as a substrate for PTEN. The lipid was dissolved in methanol/H2O and stored at −20 C. Prior to the use in these PIPase experiments, an appropriate amount of lipid was dried down and resuspended in 1% Octylglycoside (Sigma). After 10 min of sonication lipid samples were ready to be added to the enzyme assay. All assays were started by adding the enzyme into the pre-heated buffer solution, containing PI(3,4,5)P3dC16. Linear PIPase reactions were performed at 30 C for 30 min in an incubation chamber. In order to stop the enzyme reaction, 0.7 volume of colour reagent (2.3 mg/ml malachite green in 3.6 M HCl and 17 mM ammonium molybdate) was added to the enzyme solution. The mixture was allowed to develop for 20 min and the absorbance at 625 nm was measured. For all inhibitor studies inhibitor concentrations from 0.1 nM up to 500 nM were pre-incubated with PTEN and the enzyme assays were started by adding 150 μM sonicated lipid. To normalize the phosphate release a phosphate standard curve was used. All experiments were repeated in tripletts. Calculations for IC50 values were performed using GraphPad Prism.

[9] = system: NIH3T3 cells; assay: Phalloidin staining (actin re-arrangement, morphology); assay type: cell-based; conditions: 0.1 μM, 6 h and 24 h
Procedure: In order to monitor morphological changes NIH3T3 cells were grown on 8-well chamber slides and incubated with concentrations of bpV(pic) and bpV(phen) between 0.1 and 10 μM for 6 h and 24 h, respectively. Fibroblasts were fixed with 4% para-formaldehyde (PFA), permeabilised with 0.2% Triton and blocked with 10% NCS (newborn calf serum). To stain actin filaments cells were incubated with TRITC-phalloidin (Sigma) (1:1000) for 1 h. Finally, nuclei were DAPI (Sigma) stained and mounted. Morphological analyses were assessed on a microscope using filters for TRITC and DAPI and pictures were captured using a camera.

[10] = system: PKB phosphorylation (pSer473) in NIH3T3 cells; assay: Ly294002 dose dependence with and without bpV(pic); assay type: cell-based
Procedure: In order to find out whether bpV(pic) has an influence on Ly294002-dependent PKB inhibition we accomplished a dose response experiment applying concentrations from 0.01 up to 100 μM Ly294002 to two sets of quiescent fibroblasts and incubated for 20 min. One batch of cells were then further treated with 200 nM bpV(pic) (5 min) and all cells were finally stimulated with 10 μg/ml insulin for 15 min. Cell lysates were collected as described earlier. Calculations and graph were performed using GraphPad Prism.
as §3

[11] = system: PKB phosphorylation (Ser473) in NIH3T3 cells; assay: PKB assay in the presence of PI3K inhibitor Ly294002 and mTOR inhibitor rapamycin; assay type: cell-based
Procedure: In order to study the influence of PI3K and mTOR on the bpV-dependent insulin mimetic feature we treated NIH3T3 cells with 10 μM LY294002 (Promega) and 50 nM rapamycin (Calbiochem) for 20 min and 30 min, respectively, followed by an incubation with 10 μM or 1 μM bpv(pic) for 15 min. Cell lysates were analysed on PKB Western Blots.
as §3

[12] = +V compound, read-out: IC50 SopB
[13] = +IV compound, read-out: IC50 SopB

SopB, sequence (O30916 whole entry): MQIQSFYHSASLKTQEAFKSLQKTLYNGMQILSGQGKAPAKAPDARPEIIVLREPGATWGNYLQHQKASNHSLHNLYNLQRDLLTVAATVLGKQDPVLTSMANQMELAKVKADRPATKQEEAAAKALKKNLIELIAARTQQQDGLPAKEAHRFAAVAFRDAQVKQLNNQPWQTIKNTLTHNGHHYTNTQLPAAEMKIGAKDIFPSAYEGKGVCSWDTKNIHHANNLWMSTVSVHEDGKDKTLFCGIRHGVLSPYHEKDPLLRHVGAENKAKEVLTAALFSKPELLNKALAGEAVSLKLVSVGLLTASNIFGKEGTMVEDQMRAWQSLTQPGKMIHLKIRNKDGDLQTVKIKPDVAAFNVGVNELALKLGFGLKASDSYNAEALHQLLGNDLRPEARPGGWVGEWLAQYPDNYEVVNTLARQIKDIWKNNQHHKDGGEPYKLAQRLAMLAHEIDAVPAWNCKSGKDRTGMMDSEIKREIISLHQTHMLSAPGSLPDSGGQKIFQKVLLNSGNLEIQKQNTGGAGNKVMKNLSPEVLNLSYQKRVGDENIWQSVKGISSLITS
T4 sequence (P60484 whole entry): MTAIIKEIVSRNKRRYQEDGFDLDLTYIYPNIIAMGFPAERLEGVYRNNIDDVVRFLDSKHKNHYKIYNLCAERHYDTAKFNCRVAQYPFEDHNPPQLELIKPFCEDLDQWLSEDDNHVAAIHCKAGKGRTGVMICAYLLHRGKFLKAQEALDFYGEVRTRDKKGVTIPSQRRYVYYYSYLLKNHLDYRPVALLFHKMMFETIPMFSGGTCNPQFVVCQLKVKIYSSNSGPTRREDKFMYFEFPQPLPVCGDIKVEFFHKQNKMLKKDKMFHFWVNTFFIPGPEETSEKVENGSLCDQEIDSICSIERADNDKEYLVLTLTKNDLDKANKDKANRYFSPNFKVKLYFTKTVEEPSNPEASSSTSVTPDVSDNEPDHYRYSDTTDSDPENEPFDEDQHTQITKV
T1 sequence (P23467 23-1997): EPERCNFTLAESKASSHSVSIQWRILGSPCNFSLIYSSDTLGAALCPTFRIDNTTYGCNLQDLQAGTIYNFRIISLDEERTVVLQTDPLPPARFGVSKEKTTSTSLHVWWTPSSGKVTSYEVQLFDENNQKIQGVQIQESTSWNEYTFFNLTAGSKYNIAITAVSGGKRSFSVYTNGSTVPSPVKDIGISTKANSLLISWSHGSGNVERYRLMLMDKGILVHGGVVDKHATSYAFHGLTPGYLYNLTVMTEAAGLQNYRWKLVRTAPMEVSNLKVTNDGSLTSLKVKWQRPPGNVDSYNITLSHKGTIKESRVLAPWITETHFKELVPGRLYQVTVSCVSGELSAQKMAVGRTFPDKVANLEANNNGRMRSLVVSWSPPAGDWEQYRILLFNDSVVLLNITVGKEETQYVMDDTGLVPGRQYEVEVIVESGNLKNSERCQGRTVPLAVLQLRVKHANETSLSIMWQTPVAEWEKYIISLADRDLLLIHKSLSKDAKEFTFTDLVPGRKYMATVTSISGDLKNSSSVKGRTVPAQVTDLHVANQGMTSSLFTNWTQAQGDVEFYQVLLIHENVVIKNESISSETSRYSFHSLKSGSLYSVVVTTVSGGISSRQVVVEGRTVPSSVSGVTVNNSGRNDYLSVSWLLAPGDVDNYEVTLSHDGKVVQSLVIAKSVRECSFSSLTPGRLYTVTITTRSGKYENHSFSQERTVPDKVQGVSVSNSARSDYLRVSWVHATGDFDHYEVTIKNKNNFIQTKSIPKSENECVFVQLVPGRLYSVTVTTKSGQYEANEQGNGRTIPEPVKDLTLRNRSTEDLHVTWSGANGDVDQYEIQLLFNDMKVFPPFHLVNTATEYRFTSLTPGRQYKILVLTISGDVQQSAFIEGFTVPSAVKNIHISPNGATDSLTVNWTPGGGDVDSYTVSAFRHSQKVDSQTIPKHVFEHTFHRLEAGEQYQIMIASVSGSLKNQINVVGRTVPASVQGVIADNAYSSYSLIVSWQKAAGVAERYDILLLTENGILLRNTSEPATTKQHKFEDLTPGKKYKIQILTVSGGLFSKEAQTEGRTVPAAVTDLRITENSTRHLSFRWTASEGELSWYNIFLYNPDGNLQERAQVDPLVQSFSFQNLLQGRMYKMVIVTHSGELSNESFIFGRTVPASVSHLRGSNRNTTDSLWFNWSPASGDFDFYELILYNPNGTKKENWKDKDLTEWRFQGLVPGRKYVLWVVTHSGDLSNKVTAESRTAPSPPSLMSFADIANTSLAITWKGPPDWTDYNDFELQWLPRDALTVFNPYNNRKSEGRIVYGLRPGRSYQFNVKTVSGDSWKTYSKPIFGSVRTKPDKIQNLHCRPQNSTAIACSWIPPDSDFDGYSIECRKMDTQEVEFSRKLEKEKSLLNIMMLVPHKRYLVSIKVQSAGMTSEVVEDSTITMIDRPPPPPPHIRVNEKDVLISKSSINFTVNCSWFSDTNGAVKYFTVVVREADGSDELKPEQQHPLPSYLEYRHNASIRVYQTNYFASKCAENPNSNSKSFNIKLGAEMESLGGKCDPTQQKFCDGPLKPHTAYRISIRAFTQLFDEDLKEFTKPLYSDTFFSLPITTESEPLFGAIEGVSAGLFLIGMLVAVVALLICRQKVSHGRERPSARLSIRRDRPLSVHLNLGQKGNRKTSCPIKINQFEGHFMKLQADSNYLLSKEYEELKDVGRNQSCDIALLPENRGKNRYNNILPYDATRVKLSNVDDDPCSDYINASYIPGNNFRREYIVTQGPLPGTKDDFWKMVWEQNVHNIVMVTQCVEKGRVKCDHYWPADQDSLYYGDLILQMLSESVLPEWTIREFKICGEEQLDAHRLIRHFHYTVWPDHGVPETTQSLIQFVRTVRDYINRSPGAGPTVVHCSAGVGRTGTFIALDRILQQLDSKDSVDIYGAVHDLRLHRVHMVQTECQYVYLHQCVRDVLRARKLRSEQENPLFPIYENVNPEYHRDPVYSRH
T2 sequence (O08586 whole entry): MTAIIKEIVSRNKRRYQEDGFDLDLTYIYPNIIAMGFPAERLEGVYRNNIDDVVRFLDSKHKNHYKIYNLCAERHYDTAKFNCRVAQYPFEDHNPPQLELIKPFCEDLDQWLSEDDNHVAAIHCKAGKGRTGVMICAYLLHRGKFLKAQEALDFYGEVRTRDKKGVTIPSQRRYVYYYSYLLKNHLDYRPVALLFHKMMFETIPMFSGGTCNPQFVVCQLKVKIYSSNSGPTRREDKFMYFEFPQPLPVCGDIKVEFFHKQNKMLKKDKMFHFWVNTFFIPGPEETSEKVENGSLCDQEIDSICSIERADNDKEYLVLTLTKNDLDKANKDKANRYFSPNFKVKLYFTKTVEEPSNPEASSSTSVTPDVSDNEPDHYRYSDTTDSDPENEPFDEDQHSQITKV

Compound	increase of PKB phosphorylation in comparison with the control [2]	phosphorylated PKB signal [3]	IC50 [4, 12]	IC50 ([5]; Compound(+V))	IC50 [6]	IC50 [8]	IC50 ([1]; V(+IV) compounds)	IC50 ([5]; Compound(+IV))	further results
[K+].[O-][O-].[O-][O-].[O]=[V+3].c1ccc(-c2ccccn2)nc1 [bpV(bipy), potassium bisperoxo (bipyridine) oxovanadate]	about 20%	weak signal							IC50 ([1]; aromatic bpVs, pNPP substrate): 60.3 nM
O=C([O-])c1nccc2ccccc12.[K+].[K+].[O-][O-].[O-][O-].[O]=[V+3] [pV(isoqu)]			79.8 ± 9.7 nM	868 ± 187 nM	101 nM				IC50 ([1]; V(+V) compounds): 349000 ± 26500 nM
O.O.O.OO.OO.[K+].[OH-].[V].c1cnc2c(c1)ccc1cccnc12 [bpV(phen), potassium bisperoxo(1,10-phenanthroline)oxovanadate]		no phosphorylation was visible	102 nM	407 ± 38.5 nM	275 nM	38 ± 2.4 nM			tyrosine phosphorylation ([7]; 10 μM): lower stimulation; cellular morphology (actin staining) [9]: remained unchanged
O=C([O-])c1ccc(O)cn1.[K+].[K+].[O-2].[O-][O-].[O-][O-].[V+5] [bpV(HOpic), dipotassium bisperoxo(5-hydroxypyridine-2-carboxyl)oxovanadatel]	about 20%	weak signal	33.2 ± 6.5 nM	346 ± 24.8 nM	211 nM	14 ± 2.3 nM			specificity of phosphatase inhibition [8]: specifically inhibit PTEN, but not SopB, MTM or PTP; IC50 [2]: 96 nM
O=c1cc(N2CCOCC2)oc2c(-c3ccccc3)cccc12 [Ly294002, reference compound]									concentration sufficient to inhibit PKB activation completely ([10]; NIH3T3, 10 μg/ml insulin, without bpV(pic)): 5 µM
dipotassium bisperoxo(phenylbiguanide)oxovanadate [pV(phenbig)]			798 ± 41 nM	1890 ± 830 nM	48.5 nM				specificity of phosphatase inhibition [8]: specifically inhibit PTEN, but not SopB, MTM or PTP; PTEN inhibition, summary in words [8]: very good inhibitors
potassium bisperoxo (piconlinate) oxovanadate [bpV(pic)]	about 20%	weak signal		239 ± 4.2 nM		31 ± 1.7 nM			tyrosine phosphorylation ([7]; 0.01 μM): not distinguishable to the negative control; tyrosine phosphorylation ([7]; 10 μM): highest degree of tyrosine phosphorylation; effect on Ly294002 induced PKB inhibition ([10]; 200 nM bpV(pic), Ly294002 0.01 to 100 μM): can abrogate Ly294002 induced PKB inhibition; PKB phosphorylation at 5 μM Ly294002 ([10]; in the presence of 200 nM bpV(pic)): phosphorylation still occurs; cellular morphology (actin staining) [9]: remained unchanged; phosphorylation of Ser473 of PKB ([11]; 1 μM bpV(pic) after pre-incubation with 50 nM rapamycin): provoked phosphorylated Ser473; phosphorylation of Ser473 of PKB ([11]; 1 μM bpV(pic) alone): no signal was visible; phosphorylation of Ser473 of PKB ([11]; 10 μM bpV(pic) after pre-incubation with 10 μM Ly294002): reduced phosphorylation rate; phosphorylation of Ser473 of PKB ([11]; 10 μM bpV(pic) alone): high degree of phosphorylation; IC50 [2]: 48 nM
O=C([O-])c1ncccc1O.O=C([O-])c1ncccc1O.[O]=[V+2] [OHpic4]							57500 ± 9400 nM	4030 ± 40 nM	IC50 [4, 13]: 588 ± 163 nM; PTEN inhibition, summary in words [8]: very good inhibitors
O=C([O-])c1ccccn1.O=C([O-])c1ccccn1.[O]=[V+2] [pic4]							589000 ± 32900 nM	6350 ± 3920 nM	IC50 [4, 13]: 125 ± 1.65 nM
O=C([O][V](=[O])[O]C(=O)c1ccc2ccccc2n1)c1ccc2ccccc2n1 [quinolin4]							212000 ± 9400 nM	9260 ± 40 nM	IC50 [4]: 1960 ± 870 nM

Source: patent publication US7692012B2, “Vanadium compounds as inhibitors of phosphatases” (Imperial College Innovations Limited, priority 2003, dated 2010)
